Test results from the supplement of paper PMC8149375.

Columns and labels:
Details in all cases: treatment: drug alone; 5 days
UO-31 [1] = assay: AUC of dose-response viability curve, drug alone (arbitrary (AUC of normalised viability)); higher = less growth inhibition
Experimental: (§1)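 Primary HTS: 8 RCC cell lines treated with 8 doses (up to 10 uM) of each library drug alone for 5 days; viability read by CellTiter-Glo and normalised to DMSO. GI50 was fitted with XLfit (4-parameter), AUC is the area under the dose-response curve, and minimum viability is the lowest fraction of DMSO viability across doses.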

TK-10 [2] = assay: as above
Experimental: as §1

SN12C [3] = assay: as above
Experimental: as §1

769-P [4] = assay: as above
Experimental: as §1

786-O [5] = assay: as above
Experimental: as §1

A498 [6] = assay: as above
Experimental: as §1

CAKI-1 [7] = assay: as above
Experimental: as §1

ACHN [8] = assay: as above
Experimental: as §1

UO-31 [9] = assay: minimum viability across doses, drug alone, relative to DMSO (fraction); higher = less growth inhibition
Experimental: as §1

TK-10 [10] = assay: as above
Experimental: as §1

SN12C [11] = assay: as above
Experimental: as §1

769-P [12] = assay: as above
Experimental: as §1

786-O [13] = assay: as above
Experimental: as §1

A498 [14] = assay: as above
Experimental: as §1

CAKI-1 [15] = assay: as above
Experimental: as §1

ACHN [16] = assay: as above
Experimental: as §1

UO-31 [17] = assay: GI50, drug alone; higher = less potent
Experimental: as §1

TK-10 [18] = assay: GI50, drug alone; higher = less potent
Experimental: as §1

SN12C [19] = assay: GI50, drug alone; higher = less potent
Experimental: as §1

769-P [20] = assay: GI50, drug alone; higher = less potent
Experimental: as §1

786-O [21] = assay: GI50, drug alone; higher = less potent
Experimental: as §1

A498 [22] = assay: GI50, drug alone; higher = less potent
Experimental: as §1

CAKI-1 [23] = assay: GI50, drug alone; higher = less potent
Experimental: as §1

ACHN [24] = assay: GI50, drug alone; higher = less potent
Experimental: as §1

Structure (SMILES) | AUC of dose-response viability curve (UO-31 [1]) | AUC of dose-response viability curve (TK-10 [2]) | AUC of dose-response viability curve (SN12C [3]) | AUC of dose-response viability curve (769-P [4]) | AUC of dose-response viability curve (786-O [5]) | AUC of dose-response viability curve (A498 [6]) | AUC of dose-response viability curve (CAKI-1 [7]) | AUC of dose-response viability curve (ACHN [8]) | minimum viability across doses (UO-31 [9]) | minimum viability across doses (TK-10 [10]) | minimum viability across doses (SN12C [11]) | minimum viability across doses (769-P [12]) | minimum viability across doses (786-O [13]) | minimum viability across doses (A498 [14]) | minimum viability across doses (CAKI-1 [15]) | minimum viability across doses (ACHN [16]) | GI50, drug alone (UO-31 [17]) [µM] | GI50, drug alone (TK-10 [18]) [µM] | GI50, drug alone (SN12C [19]) [µM] | GI50, drug alone (769-P [20]) [µM] | GI50, drug alone (786-O [21]) [µM] | GI50, drug alone (A498 [22]) [µM] | GI50, drug alone (CAKI-1 [23]) [µM] | GI50, drug alone (ACHN [24]) [µM]
O=c1c(O)c(-c2ccc(O)c(O)c2)oc2cc(O)cc(O)c12 [Quercetin (Sophoretin)] | 3.57 | 3.01 | 3.13 | 3.3 | 2.36 | 3.6 | 3.2 | 3.48 | 0.807 | 0.736 | 0.821 | 0.784 | 0.53 | 0.923 | 0.861 | 0.899 | > 10 | > 10 | > 10 | > 10 | > 10 | > 10 | > 10 | > 10
COC(=O)Nc1ccc(-c2nc(N3CCOCC3)c3cnn(C4CCN(Cc5cccnc5)CC4)c3n2)cc1 [WYE-687] | 2.83 | 2.1 | 2.45 | 2.67 | 2.92 | 3.76 | 2.23 | 2.34 | 0.00593 | 0.0981 | 0.141 | 0.184 | 0.441 | 0.351 | 0.075 | 0.0636 | 0.581 | 0.501 | 0.996 | 1.59 | 1.48 | 4.61 | 0.577 | 0.551
CN(c1ncccc1CNc1nc(Nc2ccc3c(c2)CC(=O)N3)ncc1C(F)(F)F)S(C)(=O)=O.O=S(=O)(O)c1ccccc1 | 3.81 | 2.8 | 2.94 | 3.06 | 1.79 | 3.68 | 3.34 | 2.86 | 0.0117 | 0.132 | 0.0169 | 0.0576 | 0.00443 | 0.018 | 0.0631 | 0.0138 | 4.55 | 4.46 | 3.88 | 4.89 | 0.21 | 7.73 | 5.15 | 2.59
O=C1NC(=O)/C(=C/c2ccc(-c3ccc(F)cc3O)o2)S1 | 4.02 | 3.25 | 3.48 | 3.41 | 2.68 | 4.49 | 3.51 | 3.49 | 0.244 | 0.853 | 0.917 | 0.905 | 0.694 | 1.21 | 0.955 | 0.872 | 4.73 | > 10 | > 10 | > 10 | > 10 | > 10 | > 10 | > 10
